Measurements reported in patent US20220167618A1, “PESTICIDALLY ACTIVE AZOLE-AMIDE COMPOUNDS” (SYNGENTA CROP PROTECTION AG, priority 2019, published 2022).

Legend:
[1] = test system: Diabrotica balteata (Corn Root Worm); assay: Example B1: Diabrotica balteata (corn root worm), sprayed maize sprouts; assay type: in vivo; conditions: 96 h, application rate 200 ppm, L2 larvae, 4 days after infestation, read-out: control in at least one of the two categories (mortality or growth inhibition)
Procedure: Example B1: Diabrotica balteata (Corn Root Worm)
Maize sprouts placed onto an agar layer in 24-well microtiter plates were treated with aqueous test solutions prepared from 10′000 ppm DMSO stock solutions by spraying. After drying, the plates were infested with L2 larvae (6 to 10 per well). The samples were assessed for mortality and growth inhibition in comparison to untreated samples 4 days after infestation.

[2] = test system: Plutella xylostella (Diamond Back Moth); assay: Example B5: Plutella xylostella (diamond back moth), artificial diet, 24-well; assay type: in vivo; conditions: 192 h, application rate 200 ppm, eggs, 8 days after infestation, read-out: control in at least one of the two categories (mortality or growth inhibition)
Procedure: Example B5: Plutella xylostella (Diamond Back Moth)
24-well microtiter plates with artificial diet were treated with aqueous test solutions prepared from 10′000 ppm DMSO stock solutions by pipetting. After drying, Plutella eggs were pipetted through a plastic stencil onto a gel blotting paper and the plate was closed with it. The samples were assessed for mortality and growth inhibition in comparison to untreated samples 8 days after infestation.

[3] = test system: Chilo suppressalis (Striped Rice Stemborer); assay: Example B4: Chilo suppressalis (striped rice stemborer), artificial diet; assay type: in vivo; conditions: 144 h, application rate 200 ppm, L2 larvae, 6 days after infestation, read-out: control in at least one of the three categories (mortality, anti-feedant or growth inhibition)
Procedure: Example B4: Chilo suppressalis (Striped Rice Stemborer)
24-well microtiter plates with artificial diet were treated with aqueous test solutions prepared from 10′000 ppm DMSO stock solutions by pipetting. After drying, the plates were infested with L2 larvae (6-8 per well). The samples were assessed for mortality, anti-feeding effect, and growth inhibition in comparison to untreated samples 6 days after infestation. Control of Chilo suppressalis by a test sample is given when at least one of the categories mortality, anti-feedant effect, and growth inhibition is higher than the untreated sample.

[4] = test system: Spodoptera littoralis (Egyptian Cotton Leaf Worm); assay: Example B10: Spodoptera littoralis (Egyptian cotton leaf worm), uptake via lettuce roots from agar; assay type: in vivo; conditions: 144 h, test rate 12.5 ppm, eggs, 6 days after infestation, read-out: control in at least one of the three categories (mortality, anti-feedant, or growth inhibition)
From the text: Example B10: Spodoptera Littoralis (Egyptian Cotton Leaf Worm)
Test compounds were applied by pipette from 10′000 ppm DMSO stock solutions into 24-well plates and mixed with agar. Lettuce seeds were placed onto the agar and the multi well plate was closed by another plate which contained also agar. After 7 days the compound was absorbed by the roots and the lettuce grew into the lid plate. The lettuce leaves were then cut off into the lid plate. Spodoptera eggs were pipetted through a plastic stencil onto a humid gel blotting paper and the lid plate was closed with it. The samples were assessed for mortality, anti-feedant effect and growth inhibition in comparison to untreated samples 6 days after infestation.

[5] = test system: Spodoptera littoralis (Egyptian Cotton Leaf Worm); assay: Example B9: Spodoptera littoralis (Egyptian cotton leaf worm), sprayed cotton leaf discs; assay type: in vivo; conditions: foliar, 72 h, application rate 200 ppm, L1 larvae, 3 days after infestation, read-out: control in at least one of the three categories (mortality, anto-feedant or growth inhibition)
[6] = test system: Myzus persicae (Green Peach Aphid); assay: Example B8: Myzus persicae (green peach aphid), intrinsic activity; assay type: in vivo; conditions: 120 h, test rate 12 ppm, 5 days after infestation
From the text: Example B8: Myzus persicae (Green Peach Aphid): Intrinsic Activity
Test compounds prepared from 10′000 ppm DMSO stock solutions were applied by pipette into 24-well microtiter plates and mixed with sucrose solution. The plates were closed with a stretched Parafilm. A plastic stencil with 24 holes was placed onto the plate and infested pea seedlings were placed directly on the Parafilm. The infested plate was closed with a gel blotting paper and another plastic stencil and then turned upside down. The samples were assessed for mortality 5 days after infestation.

[7] = test system: Myzus persicae (Green Peach Aphid); assay: Example B12: Myzus persicae (green peach aphid), 96-well sucrose solution; assay type: in vivo; conditions: 120 h, application rate 50 ppm, 5 days after infestation
From the text: Example B12: Myzus persicae (Green Peach Aphid)
Test compounds prepared from 10′000 ppm DMSO stock solutions were applied by a liquid handling robot into 96-well microtiter plates and mixed with a sucrose solution. Parafilm was stretched over the 96-well microtiter plate and a plastic stencil with 96 holes was placed onto the plate. Aphids were sieved into the wells directly onto the Parafilm. The infested plates were closed with a gel blotting card and a second plastic stencil and then turned upside down. The samples were assessed for mortality 5 days after infestation.

[8] = test system: Plutella xylostella (Diamondback Moth); assay: Example B13: Plutella xylostella (diamondback moth), artificial diet, 96-well; assay type: in vivo; conditions: 216 h, application rate 500 ppm, eggs/L1 larvae, 9 days after infestation
Procedure: Example B13: Plutella xylostella (Diamondback Moth)
96-well microtiter plates containing artificial diet were treated with aqueous test solutions, prepared from 10′000 ppm DMSO stock solutions, by a liquid handling robot. After drying, eggs (˜30 per well) were infested onto a netted lid which was suspended above the diet. The eggs hatch and L1 larvae move down to the diet. The samples were assessed for mortality 9 days after infestation.

[9] = test system: Euschistus heros (Neotropical Brown Stink Bug); assay: Example B2: Euschistus heros (neotropical brown stink bug), sprayed soybean leaves; assay type: in vivo; conditions: 120 h, application rate 200 ppm, N2 nymphs, 5 days after infestation, read-out: control in at least one of the two categories (mortality or growth inhibition)
Procedure: Example B2: Euschistus heros (Neotropical Brown Stink Bug)
Soybean leaves on agar in 24-well microtiter plates were sprayed with aqueous test solutions prepared from 10′000 ppm DMSO stock solutions. After drying the leaves were infested with N2 nymphs. The samples were assessed for mortality and growth inhibition in comparison to untreated samples 5 days after infestation.

Row | Structure (SMILES) | percent control (mortality or growth inhibition) at 200 ppm [1] [%] | percent control (mortality or growth inhibition) at 200 ppm [2] [%] | percent control (mortality, anti-feedant or growth inhibition) at 200 ppm [3] [%] | percent control (mortality, anti-feedant or growth inhibition) at 12.5 ppm [4] [%] | percent control (mortality, anti-feedant or growth inhibition) at 200 ppm [5] [%] | mortality at 12 ppm [6] [%] | mortality at 50 ppm [7] [%] | mortality at 500 ppm [8] [%] | percent control (mortality or growth inhibition) at 200 ppm [9] [%] | melting point [°C]
1 | CC(NC(=O)c1cc(C(F)(F)F)cc(C2(C#N)CC2)c1)c1nc(Br)nn1-c1ccc(C#N)cn1 (stereo not shown) [Compound P1, N-[1-[5-bromo-2-(5-cyano-2-pyridyl)-1,2,4-triazol-3-yl]ethyl]-3-(1-cyanocyclopropyl)-5-(trifluoromethyl)benzamide] | ≥ 80 | ≥ 80 | ≥ 80 | ≥ 80 | ≥ 80 |  |  |  |  | 
2 | CC(NC(=O)c1cc(C(F)(F)F)nc(C2(C#N)CC2)c1)c1nc(Br)nn1-c1ncc(OCC(F)F)cn1 (stereo not shown) [Compound P4, N-[1-[5-bromo-2-[5-(2,2-difluoroethoxy)pyrimidin-2-yl]-1,2,4-triazol-3-yl]ethyl]-2-(1-cyanocyclopropyl)-6-(trifluoromethyl)pyridine-4-carboxamide] | ≥ 80 | ≥ 80 | ≥ 80 |  | ≥ 80 | ≥ 80 |  |  |  | 
3 | CC(NC(=O)c1cc(C2CC2(F)F)cc(C(F)(F)F)c1)c1nc(Br)nn1-c1ccc(OC(F)F)cn1 (stereo not shown) [Compound P7, N-[1-[5-bromo-2-[5-(difluoromethoxy)-2-pyridyl]-1,2,4-triazol-3-yl]ethyl]-3-(2,2-difluorocyclopropyl)-5-(trifluoromethyl)benzamide] | ≥ 80 | ≥ 80 | ≥ 80 |  | ≥ 80 |  | ≥ 80 | ≥ 80 |  | 
4 | CC(NC(=O)c1cc(C2CC2(F)F)cc(C(F)(F)F)c1)c1nc(Br)nn1-c1ncc(OCC(F)(F)F)cn1 (stereo not shown) [Compound P11, N-[1-[5-bromo-2-[5-(2,2,2-trifluoroethoxy)pyrimidin-2-yl]-1,2,4-triazol-3-yl]ethyl]-3-(2,2-difluorocyclopropyl)-5-(trifluoromethyl)benzamide] | ≥ 80 | ≥ 80 | ≥ 80 |  | ≥ 80 |  |  | ≥ 80 | ≥ 80 | 
5 | CC(NC(=O)c1cc(C2CC2)nc(C(F)(F)F)c1)c1nc(Br)nn1-c1ncc(OCC(F)F)cn1 (stereo not shown) [Compound P14, N-[1-[5-bromo-2-[5-(2,2-difluoroethoxy)pyrimidin-2-yl]-1,2,4-triazol-3-yl]ethyl]-2-cyclopropyl-6-(trifluoromethyl)pyridine-4-carboxamide] | ≥ 80 | ≥ 80 | ≥ 80 |  | ≥ 80 |  | ≥ 80 | ≥ 80 |  | 
6 | CC(NC(=O)c1cc(C2CC2)cc(C(F)(F)F)c1)c1nc(Br)nn1-c1ncc(OC(F)F)cn1 (stereo not shown) [Compound P26, N-[1-[5-bromo-2-[5-(difluoromethoxy)pyrimidin-2-yl]-1,2,4-triazol-3-yl]ethyl]-3-cyclopropyl-5-(trifluoromethyl)benzamide] | ≥ 80 | ≥ 80 | ≥ 80 |  | ≥ 80 |  | ≥ 80 | ≥ 80 |  | 
7 | CC(NC(=O)c1cc(C(F)(F)F)cc(C(F)(F)C2CC2)c1)c1nc(Br)nn1-c1ccc(OCC(F)F)cn1 (stereo not shown) [Compound P31, N-[1-[5-bromo-2-[5-(2,2-difluoroethoxy)-2-pyridyl]-1,2,4-triazol-3-yl]ethyl]-3-[cyclopropyl(difluoro)methyl]-5-(trifluoromethyl)benzamide] |  |  |  |  |  |  |  |  |  | 140 to 142
8 | CC(NC(=O)c1cc(C(F)(F)F)nc(C2(C#N)CC2)c1)c1nc(Br)nn1-c1ccc(OCC(F)F)cn1 (stereo not shown) [Compound P32, N-[1-[5-bromo-2-[5-(2,2-difluoroethoxy)-2-pyridyl]-1,2,4-triazol-3-yl]ethyl]-2-(1-cyanocyclopropyl)-6-(trifluoromethyl)pyridine-4-carboxamide] |  |  |  |  |  |  |  |  |  | 147 to 149
9 | CC(NC(=O)c1cc(C(F)(F)F)nc(C2(C#N)CC2)c1)c1nc(Br)nn1-c1ccc(OCC(F)(F)F)cn1 (stereo not shown) [Compound P33, N-[1-[5-bromo-2-[5-(2,2,2-trifluoroethoxy)-2-pyridyl]-1,2,4-triazol-3-yl]ethyl]-2-(1-cyanocyclopropyl)-6-(trifluoromethyl)pyridine-4-carboxamide] |  |  |  |  |  |  |  |  |  | 82 to 84
10 | CC(NC(=O)c1cc(C(F)(F)F)nc(C2(C#N)CC2)c1)c1nc(Br)nn1-c1ncc(OCC(F)(F)F)cn1 (stereo not shown) [Compound P34, N-[1-[5-bromo-2-[5-(2,2,2-trifluoroethoxy)pyrimidin-2-yl]-1,2,4-triazol-3-yl]ethyl]-2-(1-cyanocyclopropyl)-6-(trifluoromethyl)pyridine-4-carboxamide] |  |  |  |  |  |  |  |  |  | 157 to 159
11 | CC(NC(=O)c1cc(C(F)(F)F)cc(C(C)(C)C#N)c1)c1nc(Br)nn1-c1ccc(C#N)cn1 (stereo not shown) [Compound P36, N-[1-[5-bromo-2-(5-cyano-2-pyridyl)-1,2,4-triazol-3-yl]ethyl]-3-(1-cyano-1-methyl-ethyl)-5-(trifluoromethyl)benzamide] | ≥ 80 | ≥ 80 | ≥ 80 |  | ≥ 80 |  |  | ≥ 80 | ≥ 80 | 
12 | CC(NC(=O)c1cc(C(F)(F)F)cc(C(C)(C)C#N)c1)c1nc(Br)nn1-c1ccc(OC(F)F)cn1 (stereo not shown) [Compound P37, N-[1-[5-bromo-2-[5-(difluoromethoxy)-2-pyridyl]-1,2,4-triazol-3-yl]ethyl]-3-(1-cyano-1-methyl-ethyl)-5-(trifluoromethyl)benzamide] | ≥ 80 | ≥ 80 | ≥ 80 |  | ≥ 80 |  |  |  | ≥ 80 | 
